system: sAPPβ release in SH-SY5Y cells; test: sAPPβ release assay; format: cell-based; details: Homo sapiens, SH-SY5Y, 17 h, compounds incubated 17 h, MSD detection
Description: Thaw cells and seed at a conc. of around 10000 cells/well in DMEM/F-12 with Glutamax, 10% FCS and 1% non-essential amino acids to a 384-well tissue culture treated plate, 100 μL cell susp/well. […] The cell medium was removed, followed by addition of 30 μL compound diluted in DMEM/F-12 with Glutamax, 10% FCS, 1% non-essential amino acids and 1% PeSt to a final conc. of 1% DMSO. The compounds were incubated with the cells for 17 h (overnight) at 37° C., 5% CO2. Meso Scale Discovery (MSD) plates were used for the detection of sAPPβ release. MSD sAPPβ plates were blocked in 1% BSA in Tris wash buffer (40 μL/well) for 1 h on shake at r.t. and washed 1 time in Tris wash buffer (40 μL/well). 20 μL of medium was transferred to the pre-blocked and washed MSD sAPPβ microplates, and the cell plates were further used in an ATP assay to measure cytotoxicity. The MSD plates were incubated with shaking at r.t. for 2 h and the media discarded. 10 μL detection antibody was added (1 nM) per well followed by incubation with shaking at r.t. for 2 h and then discarded. 40 μL Read Buffer was added per well and the plates were read in a SECTOR Imager.

Compound	IC50
[2H]C([2H])([2H])O[C@H]1CC[C@]2(CC1)Cc1ccc(-c3cc(F)cc(C#N)c3)cc1C21N=C(C)C(N)=N1 (some centres unmarked) [Example 118, 3-{(1r,4r)-4″-Amino-5″-methyl-4-[(^2H3)methyloxy]-3′H-dispiro[cyclohexane-1,2′-indene-1′,2″-imidazol]-6′-yl}-5-fluorobenzonitrile]	2.8 nM
CCO[C@H]1CC[C@]2(CC1)Cc1ccc(-c3cc(F)cc(C#N)c3)cc1C21N=C(C)C(N)=N1 (some centres unmarked) [Example 132, 3-[(1r,4r)-4″-amino-4-ethoxy-5″-methyl-3′H-dispiro[cyclohexane-1,2′-indene-1′,2″-imidazol]-6′-yl]-5-fluorobenzonitrile]	17 nM
CO[C@H]1CC[C@]2(CC1)Cc1ccc(-c3cc(F)cc(F)c3)cc1[C@@]21N=C(C)C(N)=N1 [Example 88, (1r,1′R,4R)-6′-(3,5-difluorophenyl)-4-methoxy-5″-methyl-3′H-dispiro[cyclohexane-1,2′-indene-1′,2″-imidazol]-4″-amine]	4.8 nM
COCc1cc(F)cc(-c2ccc3c(c2)C2(N=C(C)C(N)=N2)[C@]2(CC[C@H](OC)CC2)C3)c1 (some centres unmarked) [Example 81, (1r,4r)-6′-[3-Fluoro-5-(methoxymethyl)phenyl]-4-methoxy-5″-methyl-3′H-dispiro[cyclohexane-1,2′-indene-1′,2″-imidazol]-4″-amine]	20 nM
CC#Cc1cncc(-c2ccc3c(c2)C2(N=C(C)C(N)=N2)C2(CCC2)C3)c1 (centres unmarked) [Example 56, 5″-Methyl-6′-[5-(prop-1-yn-1-yl)pyridin-3-yl]-3′H-dispiro[cyclobutane-1,2′-indene-1′,2″-imidazol]-4″-amine]	24 nM
CC1=N[C@]2(C[C@@H]([C@H]3CCCOC3)Oc3ccc(-c4cccc(Cl)c4)cc32)N=C1N [Example 48 Isomer 8, (2S,4R)-6-(3-chlorophenyl)-5′-methyl-2-[(3S)-tetrahydro-2H-pyran-3-yl]-1′,2,3,3′-tetrahydrospiro[chromene-4,2′-imidazol]-4′-amine]	204 nM
CO[C@H]1CC[C@]2(CC1)Cc1ccc(NC(=O)c3ncc(Cl)cc3Cl)cc1C21N=C(C)C(N)=N1 (some centres unmarked) [Example 20o, N-[(1r,4r)-4″-Amino-4-methoxy-5″-methyl-3′H-dispiro[cyclohexane-1,2′-indene-1′,2″-imidazol]-6′-yl]-3,5-dichloropyridine-2-carboxamide]	9.2 nM

Next, values leading:

IC50	Compound
3.6 nM	CCc1cc(C#N)cc(-c2ccc3c(c2)C2(N=C(C)C(N)=N2)[C@]2(CC[C@H](OC)CC2)C3)c1 (some centres unmarked) [Example 95, 3-[(1r,4r)-4″-Amino-4-methoxy-5″-methyl-3′H-dispiro[cyclohexane-1,2′-indene-1′,2″-imidazol]-6′-yl]-5-ethylbenzonitrile]
10 nM	CO[C@H]1CC[C@]2(CC1)Cc1ccc(-c3ccc4[nH]cc(C)c4c3)cc1C21N=C(C)C(N)=N1 (some centres unmarked) [Example 121, (1r,4r)-4-Methoxy-5″-methyl-6′-(3-methyl-1H-indol-5-yl)-3′H-dispiro[cyclohexane-1,2′-indene-1′,2″-imidazol]-4″-amine]
13 nM	COCc1cccc(-c2ccc3c(c2)C2(N=C(C)C(N)=N2)[C@]2(CC[C@H](OC)CC2)C3)c1 (some centres unmarked) [Example 80, (1r,4r)-4-Methoxy-6′-[3-(methoxymethyl)phenyl]-5″-methyl-3′H-dispiro[cyclohexane-1,2′-indene-1′,2″-imidazol]-4″-amine]
109 nM	CC1=NC2(N=C1N)c1cc(-c3cncc(Cl)c3)ccc1CC21CCC(F)(F)CC1 (centres unmarked) [Example 28c, 6′-(5-Chloropyridin-3-yl)-4,4-difluoro-5″-methyl-3′H-dispiro[cyclohexane-1,2′-indene-1′,2″-imidazol]-4″-amine]
118 nM	CC1=NC2(N=C1N)c1cc(-c3cncc(Cl)c3)ccc1CC21CCC1 (centres unmarked) [Example 55, 6′-(5-Chloropyridin-3-yl)-5″-methyl-3′H-dispiro[cyclobutane-1,2′-indene-1′,2″-imidazol]-4″-amine]
0.5 nM	[2H]C([2H])([2H])O[C@H]1CC[C@]2(CC1)Cc1ccc(-c3cc(Cl)cc(C#N)c3)cc1C21N=C(C)C(N)=N1 (some centres unmarked) [Example 125, 3-{(1r,4r)-4″-Amino-5″-methyl-4-[(^2H3)methyloxy]-3′H-dispiro[cyclohexane-1,2′-indene-1′,2″-imidazol]-6′-yl}-5-chlorobenzonitrile]

same assay, conditions: Homo sapiens, compounds incubated 17 h, MSD detection

Compound	IC50
CC1=NC2(N=C1N)c1cc(NC(=O)c3ccc(Cl)cn3)ccc1CC21CCC(F)(F)CC1 (centres unmarked) [Example 28d, N-(4″-Amino-4,4-difluoro-5″-methyl-3′H-dispiro[cyclohexane-1,2′-indene-1′,2″-imidazol]-6′-yl)-5-chloropyridine-2-carboxamide]	89 nM
CC1=NC2(N=C1N)c1cc(-c3cc(F)cc(C#N)c3)ccc1CC21CCC(=O)CC1 (centres unmarked) [Example 115, 3-(4″-Amino-5″-methyl-4-oxodispiro[cyclohexane-1,2′-[1H]indene-1′(3′H),2″-[2H]imidazol]-6′-yl)-5-fluorobenzonitrile]	293 nM
COc1cc(-c2ccc3c(c2)C2(N=C(C)C(N)=N2)[C@]2(CC[C@H](OC(F)F)CC2)C3)cc(C#N)c1F (some centres unmarked) [Example 110, 5-[(1r,4r)-4″-Amino-4-(difluoromethoxy)-5″-methyl-3′H-dispiro[cyclohexane-1,2′-indene-1′,2″-imidazol]-6′-yl]-2-fluoro-3-methoxybenzonitrile]	4 nM

Further lines, results first:

IC50	Compound
7.7 nM	CCO[C@H]1CC[C@]2(CC1)Cc1ccc(-c3cc(C#N)cc(C(F)F)c3)cc1C21N=C(C)C(N)=N1 (some centres unmarked) [Example 134, 3-[(1r,4r)-4″-Amino-4-ethoxy-5″-methyl-3′H-dispiro[cyclohexane-1,2′-indene-1′,2″-imidazol]-6′-yl]-5-(difluoromethyl)benzonitrile]
91 nM	CO[C@H]1CC[C@]2(CC1)Cc1ccc(NC(=O)c3ncc(Br)cn3)cc1C21N=C(C)C(N)=N1 (some centres unmarked) [Example 20j, N-[(1r,4r)-4″-Amino-4-methoxy-5″-methyl-3′H-dispiro[cyclohexane-1,2′-indene-1′,2″-imidazol]-6′-yl]-5-bromopyrimidine-2-carboxamide]
125 nM	CCC1=NC2(N=C1N)c1cc(Br)ccc1C[C@]21CC[C@@H](OC)CC1 (some centres unmarked) [Example 64, (1r,4r)-6′-Bromo-5″-ethyl-4-methoxy-3′H-dispiro[cyclohexane-1,2′-indene-1′,2″-imidazol]-4″-amine]
3.3 nM	CO[C@H]1CC[C@]2(CC1)Cc1ccc(-c3cncc(F)c3)cc1C21N=C(C)C(N)=N1 (some centres unmarked) [Example 20f, (1r,4r)-6′-(5-Fluoropyridin-3-yl)-4-methoxy-5″-methyl-3′H-dispiro[cyclohexane-1,2′-indene-1′,2″-imidazol]-4″-amine]
2880 nM	CC1=NC2(CCOc3ccc(-c4cc(F)cc(F)c4)cc32)N=C1N (centres unmarked) [Example 3, 6-(3,5-Difluorophenyl)-5′-methylspiro[chroman-4,2′-imidazol]-4′-amine]
2.9 nM	CO[C@H]1CC[C@]2(CC1)Cc1ccc(-c3cncc(C)c3)cc1[C@@]21N=C(C)C(N)=N1 [Example 83, (1r,1′R,4R)-4-Methoxy-5″-methyl-6′-(5-methylpyridin-3-yl)-3′H-dispiro[cyclohexane-1,2′-indene-1′,2″-imidazol]-4″-amine]
56 nM	CC1=NC2(N=C1N)c1cc(-c3cc(Cl)cc(C#N)c3)ccc1CC21CC1 (centres unmarked) [Example 78, 3-(4″-Amino-5″-methyl-3′H-dispiro[cyclopropane-1,2′-indene-1′,2″-imidazol]-6′-yl)-5-chlorobenzonitrile]

— patent publication US10231967B2, “Compounds and their use as BACE inhibitors” (ASTRAZENECA AB, priority 2010, dated 2019)
